US12331324B2, “Versatile peroxidases and uses thereof” (Yeda Research and Development Co. Ltd., priority 2021, dated 2025)
Like-named read-outs stand apart in the source and are kept apart here.

Assays:
[1] = biological target: Pleurotus eryngii versatile peroxidase VPL, variant R4 (VPL-R4, previously evolved for expression; wild type SEQ ID NO: 8) (Pleurotus eryngii, UniProt O94753); assay type: biochemical; settings: 25° C.
Protocol: (§1) VPs production and purification. A colony from S. cerevisiae clone containing the VP gene (5H, 8H, 11H, VPL_R4, VPL_2-1B) was picked from an SC drop-out plate, inoculated in 25 mL minimal medium in a 250 flask, and incubated for 48 hours at 30° C. and 225 rpm. An aliquot of cells was removed and used to inoculate 100 mL of minimal medium in a 1 L flask to an OD600 nm of 0.25-0.30, under the same conditions. The cells completed two growth phases (8-10 hours, reaching OD600 nm˜1-1.5), then the expression medium (450 mL) was inoculated with 50 mL of the pre-culture in a 2 L flask (OD600 nm˜0.1). Cells were incubated for a further ˜60 hours at 30° C. and 225 rpm. Thereafter, cells were centrifuged at 6000 g for 15 min at 4° C., and the supernatant was collected and filtered with a 0.2 μm filter bottle.
(§2) Filtrates were subjected to fractional precipitation with ammonium sulfate in two steps: first cut of 50%, followed by centrifugation and elimination of the precipitates, and the second cut of 70%. Buffer A was used to dissolve the pellet, and the dissolved protein solution was shaken overnight at 4° C. for maximal recovery. The dissolved fraction was then centrifuged, filtrated, concentrated, and subjected to overnight dialysis against buffer A. Filtered fractions of the VP proteins after dialysis were uploaded into a HiTrap™ Q HP Column (GE Healthcare Bio-Sciences AB, Uppsala, Sweden) pre-equilibrated with buffer A, through ÄKTA pure protein purification system (GE Healthcare Bio-Sciences AB). Proteins were eluted in a two-step linear gradient from 0 to 1 M NaCl, at a flow rate of 1 ml/min: the first phase of 0-25% over 15 column volumes (75 min) and second phase of 25-100% over 2 column volumes (10 min). The fractions of the peak with the highest VP activity (and absorption at 407 nm) were pooled, concentrated, and dialyzed against 20 mM piperazine buffer pH=5.5 and 150 mM NaCl (buffer B). Protein fractions were then uploaded onto a Superdex 75 Increase 10/300 GL (GE Healthcare Bio-Sciences AB) through the ÄKTA pure system pre-equilibrated with buffer B. The fractions of the peak with the highest VP activity (and absorption at 407 nm) were pooled and dialyzed against buffer A. Pure protein samples were stored at 4° C. Protein concentration was determined using the BCA assay with bovine serum albumin as a standard.
(§3) pH activity profiles. For purified 5H, 8H, 11H, and R4, 20 μL protein samples (diluted in buffer A) were transferred into activity 96 plates (in the case of VA and MnSO4, UV-Star plates; Greiner Bio-One GmbH, Kremsmünster, Austria) and then, 180 μL of the reaction mixture were added to each row in the plate, and absorption at the appropriate wavelength (substrate-dependent) was recorded immediately in a kinetic mode in a plate-reader at 25° C. The reaction mixtures contained a specific substrate in 100 mM citrate-phosphate-borate buffer (pH 2, 3, 3.5, 4, 5, 6, 7, 8) and 0.1 mM H2O2. The activities were recorded in triplicate. The following substrate concentrations and absorption wavelengths were used: ABTS: 2 mM, 418 nm; DMP: 5 mM, 469 nm; RB5: 0.05 mM, 598 nm; VA: 30 mM, 310 nm. For manganese, the reaction mixtures contained 60 mM MnSO4 in 100 mM sodium tartrate buffer (pH 3, 3.5, 4, 4.5, 5) and 0.1 mM H2O2, and the Mn^3+-tartrate complex absorption was read at 238 nm. For each protein and substrate, the activities were normalized to the activity at optimal pH for residual activity calculations. Each activity assay was conducted in triplicate.
(§4) Kinetic parameters. Steady-state kinetics were determined for 5H, 8H, 11H and R4, by measuring the activity (initial rates) in increasing concentrations of the substrate, and the KM and Kcat values were calculated by fitting the results to the Michaelis-Menten model (V0=KcatES/(KM+S)).

[2] = system: Ganoderma sp. 10597_SS1 versatile peroxidase VP8, designed variant 8H, SEQ ID NO: 2 (wild type SEQ ID NO: 5; mutations R4P, M5S, E34T, G59A, T65W, A67Q, V85I …); assay type: biochemical; settings: for Kcat / Kcat/KM / Km: 25° C.
Protocol: as §1, §2, §3, §4

[3] = system: Pleurotus eryngii versatile peroxidase VPL, variant R4 (VPL-R4, previously evolved for expression; wild type SEQ ID NO: 8); assay type: biochemical
Protocol: as §1, §2, §3, §4

[4] = system: Pleurotus ostreatus versatile peroxidase VP5, designed variant 5H, SEQ ID NO: 1 (wild type SEQ ID NO: 4; mutations A11S, V15T, A17S, A19E, P26D, D38G, A40Q …)
Protocol: as §1
Filtrates were subjected to fractional precipitation with ammonium sulfate in two steps: first cut of 50%, followed by centrifugation and elimination of the precipitates, and the second cut of 70%. […] Protein concentration was determined using the BCA assay with bovine serum albumin as a standard.
pH activity profiles. […] The activities were recorded in triplicate. […] For manganese, the reaction mixtures contained 60 mM MnSO4 in 100 mM sodium tartrate buffer (pH 3, 3.5, 4, 4.5, 5) and 0.1 mM H2O2, and the Mn^3+-tartrate complex absorption was read at 238 nm. […]

[5] = high efficiency site, optimum pH, 1 mM H2O2
[6] = low efficiency site, optimum pH, 1 mM H2O2
[7] = high efficiency site, optimum pH, 0.2 mM H2O2
[8] = low efficiency site, optimum pH, 0.2 mM H2O2
[9] = H2O2 kinetics with 2 mM ABTS, optimum pH for ABTS
[10] = H2O2 kinetics with 3 mM ABTS, optimum pH for ABTS
[11] = VA, RB5, optimum pH, 0.2 mM H2O2

Sequence of Pleurotus eryngii versatile peroxidase VPL, variant R4 (VPL-R4, previously evolved for expression; wild type SEQ ID NO: 8) (Pleurotus eryngii, UniProt O94753) (O94753 31-361, change not shown): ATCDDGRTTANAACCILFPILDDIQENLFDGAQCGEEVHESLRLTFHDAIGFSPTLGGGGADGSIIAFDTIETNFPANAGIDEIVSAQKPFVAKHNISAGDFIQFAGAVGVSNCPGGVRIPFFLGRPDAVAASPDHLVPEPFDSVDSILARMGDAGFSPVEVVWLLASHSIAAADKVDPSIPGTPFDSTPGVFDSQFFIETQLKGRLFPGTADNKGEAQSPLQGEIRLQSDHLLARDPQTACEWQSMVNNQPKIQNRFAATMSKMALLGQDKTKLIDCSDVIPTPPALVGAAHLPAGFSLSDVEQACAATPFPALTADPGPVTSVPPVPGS

In the case of `CCn1c(=NN=c2sc3cc(S(=O)(=O)O)ccc3n2CC)sc2cc(S(=O)(=O)O)ccc21` [ABTS, 2,2′-azino-bis (3-ethylbenzothiazoline-6-sulfonic acid)], the Kcat [1, 5] is reported as 1.3 ± 0.1 s⁻¹, the Kcat/KM [1, 5] is reported as 3,300 ± 700 sec^−1 mM^−1 and the Km [1, 5] is reported as 0.39 ± 0.08 µM. The Kcat [1, 6] was 400 ± 21 s⁻¹, the Kcat/KM [1, 6] was 405 ± 49 s⁻¹ mM⁻¹ and the Km [1, 6] was 987 ± 107 µM. The Kcat [2, 7] was 7.8 ± 0.3 s⁻¹, the Kcat/KM [2, 7] was 1.55e+06 ± 260000 M⁻¹ s⁻¹ and the Km [2, 7] was 5 ± 0.8 µM. For the same compound, the Kcat [2, 8] was 28.2 ± 0.9 s⁻¹, the Kcat/KM [2, 8] was 35400 ± 4400 M⁻¹ s⁻¹ and the Km [2, 8] was 795 ± 96 µM.
With `COc1cccc(OC)c1O` [DMP, 2,6-dimethoxyphenol] the Kcat [1, 5] was 0.74 ± 0.05 s⁻¹, the Kcat/KM [1, 5] was 542 ± 113 s⁻¹ mM⁻¹ and the Km [1, 5] was 1.4 ± 0.3 µM. For the same compound, the Kcat [1, 6] was 132 ± 7 s⁻¹, the Kcat/KM [1, 6] was 8.2 ± 1.0 s⁻¹ mM⁻¹ and the Km [1, 6] was 16100 µM. The “heme-dependent affinity for DMP, fold higher relative to the other VPs” value ([2]; 8H relative to the other VPs (5H, 11H, R4)) was “at least 70 fold”, the Kcat [2, 7] was 2.2 ± 0.1 s⁻¹ and the Kcat/KM [2, 7] was 94600 ± 8200 M⁻¹ s⁻¹. For the same compound, the Km [2, 7] was 22.9 ± 1.8 µM, the Kcat [2, 8] was 3.6 ± 0.1 s⁻¹ and the Kcat/KM [2, 8] was 22100 ± 1600 M⁻¹ s⁻¹. It also gave a Km [2, 8] of 164 ± 12 µM.
`OO` [H2O2, Hydrogen peroxide] was tested, and the “H2O2 affinity, fold lower than seen in 11H” value [3] was 12 fold, the Kcat [1, 9] was 230 ± 9 s⁻¹ and the Kcat/KM [1, 9] was 503 ± 61 s⁻¹ mM⁻¹. The Km [1, 9] was 457 ± 53 µM, the “H2O2 affinity, fold lower than seen in 11H” value ([2]; 8H relative to 11H) was 2 fold and the Kcat [2, 10] was 12.1 ± 0.6 s⁻¹. The Kcat/KM [2, 10] was 135000 ± 21000 M⁻¹ s⁻¹, the Km [2, 10] was 89.7 ± 12.9 µM and the “H2O2 affinity, fold lower than seen in 11H” value ([4]; 5H relative to 11H) was 5 fold.
`Nc1c(N=Nc2ccc(S(=O)(=O)CCOS(=O)(=O)O)cc2)c(S(=O)(=O)O)cc2cc(S(=O)(=O)O)c(N=Nc3ccc(S(=O)(=O)CCOS(=O)(=O)O)cc3)c(O)c12` [RB5, reactive black 5] gave a Kcat ([1]; VA, RB5, optimum pH, 1 mM H2O2) of 0.63 ± 0.02 s⁻¹, a Kcat/KM ([1]; VA, RB5, optimum pH, 1 mM H2O2) of 487 ± 51 s⁻¹ mM⁻¹ and a Km ([1]; VA, RB5, optimum pH, 1 mM H2O2) of 1.3 ± 0.1 µM. For the same compound, the Kcat [2, 11] was 1.1 ± 0.1 s⁻¹, the Kcat/KM [2, 11] was 65000 ± 7200 M⁻¹ s⁻¹ and the Km [2, 11] was 17.3 ± 1.7 µM.
`COc1ccc(CO)cc1OC` [VA, veratryl alcohol] showed a Kcat ([1]; VA, RB5, optimum pH, 1 mM H2O2) of 5.4 ± 0.4 s⁻¹, a Kcat/KM ([1]; VA, RB5, optimum pH, 1 mM H2O2) of 0.7 ± 0.1 s⁻¹ mM⁻¹ and a Km ([1]; VA, RB5, optimum pH, 1 mM H2O2) of 7400 µM. The Kcat [2, 11] was 5.5 ± 0.1 s⁻¹, the Kcat/KM [2, 11] was 550 ± 20 M⁻¹ s⁻¹ and the Km [2, 11] was 10100 µM. For the same compound, the “affinity for VA relative to the next best enzyme” value ([4]; 5H relative to the next best enzyme) was “more than an order of magnitude higher affinity”.
